Data on 3 compounds can be found in patent US9556217B2, “Amphiphilic compounds” (WISCONSIN ALUMNI RESEARCH FOUNDATION, priority 2012, dated 2017).

Series [1] in a line: Critical micelle concentration (fluorescent dye solubilization). Type of series: physicochemical. From the text:
The “Critical Micelle Concentration” (CMC) refers to the concentration of a detergent (e.g., an amphiphile as described herein) in an aqueous solution at which the detergent molecules self-assemble into micelles. Below the CMC, detergents are mostly monomeric; above the CMC, micelle concentration increases linearly with detergent concentration. The CMC is dependent upon many factors and is detergent-specific. The CMC of a detergent can be determined experimentally by measuring the solubilization of a water-insoluble dye or fluorophore while varying the concentration of detergent. A CMC may also be determined by measuring the diminution of the surface tension of an aqueous solution as a function of detergent concentration (CMCs determined by either method correlate with each other). The CMC is determined by extrapolating the plot of solubilization vs. concentration (or surface tension vs. concentration) in the two linear regions above and below the CMC. Where the two lines intersect is the CMC. The CMC can also be determined by the method of Nugebauer, J. M. (1990), Methods in Enzymology, 182:239-253.
The four compounds were readily prepared on a multi-gram scale (see Examples 1 and 2 below, and FIGS. 13-15), as is necessary if they are to serve as research tools. All four are highly soluble in aqueous solution (>20 wt %) and have relatively low critical micelle concentrations (CMC; determined by fluorescent dye solubilization).

Series [2] can be described thus: Hydrodynamic radius of micelles by dynamic light scattering. The series is classed as physicochemical. The conditions noted are these: Mean ± SD, n = 5. From the text: These values are somewhat smaller than the CMC of DDM, which indicates a strong tendency of the new agents to self-assemble, and which can be advantageous for IMP handling because detrimental levels of non-micellar amphiphile can be avoided. Table 1 provides the hydrodynamic radius (Rh) of the micelles formed by each amphiphile, as determined by dynamic light scattering (DLS). The micelles formed by GLC amphiphiles are slightly smaller than those formed by DDM, while the micelles formed by GDN are slightly larger.

Series [3] has as its system leucine transporter (LeuT). Description: LeuT functional assay ([3H]-Leu binding, SPA). The series is classed as biochemical, Aquifex aeolicus. The settings on record: CMC+0.04 wt % or CMC+0.2 wt %. Here is the method: The new amphiphiles were then evaluated for the ability to maintain the leucine transporter (LeuT) from Aquifex aeolicus in a functional state (Quick and Javitch, Proc. Natl. Acad. Sci. USA 2007, 104, 3603-3608). The transporter was initially extracted with DDM and then diluted with amphiphile-containing solutions to generate amphiphile concentration of CMC+0.04 wt % or CMC+0.2 wt %. At both concentrations, GDN was very effective at maintaining LeuT activity, as indicated by binding of radiolabeled leucine, with preservation of >95% of initial activity after 12 days (FIG. 5c).
LeuT functionality was measured according to the procedure reported by Chae and coworkers (Nat. Methods 2010, 7, 1003-1008).
LeuT activity was measured according to the reported procedure (Chae et al., J. Am. Chem. Soc. 2010, 132, 16750-16752). […] Following protein storage at RT, at the indicated time points, samples were centrifuged and the protein concentration was assessed by determining absorbance at 280 nm. Concomitantly, for the corresponding time points, [^3H]-Leu binding was measured using scintillation proximity assay (SPA). […] Binding was assessed in 200 mM NaCl in the presence of tested compounds at the above-mentioned concentrations, and monitored using MicroBeta liquid scintillation counter (PerkinElmer).

Series [4] has as its system β2AR-T4L. The experiment in a line: β2AR-T4L thermostability (Tm, carazolol fluorescence). Also noted: species or system human. The settings on record: for β2AR-T4L Tm comparison at higher concentrations: higher concentrations than CMC+0.05 wt %. The procedure:
To assess the new amphiphiles with a GPCR, a human 132 adrenergic receptor-T4-lysozyme fusion protein (β2AR-T4L) was used (Rosenbaum et al., Science 2007, 318, 1266-1273). Stability was assessed via […] of β2AR-T4L bound to the inverse agonist carazolol. β2AR-T4L was initially solubilized and purified with DDM, and this detergent was then exchanged for the agent to be evaluated. The fluorescence emission maximum of carazolol occurs at 356 nm in aqueous solution, but emission is shifted to 341 nm in the receptor-bound state. The 341:356 nm peak intensity ratio was used to monitor the relative amounts of intact and denatured β2AR-T4L, with Tm defined as the temperature at which the 341:356 nm peak intensity ratio is half-way between that of fully native receptor and the fully denatured receptor.
Stability of β2AR-T4L was assessed by measuring the melting temperature (Tm) of the receptor according to the procedure reported by Chae and coworkers (Nat. Methods 2010, 7, 1003-1008).
A receptor fusion protein of T4 lysozyme inserted in the 3rd intracellular loop of the β2AR^4 was cloned into BestBac baculovirus (Expression Systems, CA) and expressed in Sf9 insect cell cultures. The receptor was solubilized and purified in DDM as previously described (Kobilka, Anal. Biochem. 1995, 231, 269-271). […]
For stability measurements the carazolol-bound receptor was diluted below the CMC for DDM by adding 3 μL of the concentrated receptor in a quartz cuvette containing 600 μL buffer (100 mM NaCl, 20 mM HEPES, pH 7.5) with amphiphiles at various concentrations above their CMC. […] Fluorescence emission from carazolol was obtained following 5 min incubations from 25 to 85° C. in twelve continuous 5° C. increments. Excitation was set at 325 nm, and emission was measured from 335 to 400 nm with an integration time of 0.3 s nm-1 using a bandpass of 1 nm for both excitation and emission. The 341:356 nm peak ratio was calculated and graphed using Microsoft Excel and GraphPad Prism software.

Turning to `CCCCCCCCCCCCO[C@@H]1O[C@H](CO)[C@@H](O[C@H]2O[C@H](CO)[C@@H](O)[C@H](O)[C@H]2O)[C@H](O)[C@H]1O` [DDM, dodecyl-β-D-maltoside, reference compound], in series [1], the “CMC” value is approximately 170 µM and the “CMC (wt %)” value was approximately 0.0087 wt %. Moreover, the “Rh (nm), hydrodynamic radius of micelles” value in series [2] worked out at 3.42 ± 0.03 nm. Further, the “Maintaining LeuT activity over 12 days” value in series [3] (RT) is listed as “lost significant activity”. Moreover, the “β2AR-T4L Tm comparison at relatively low concentrations” value in series [4] (<CMC+0.05 wt %) is “superior to the new amphiphiles”.
Regarding `C[C@@H]1CC[C@@]2(OC1)O[C@H]1C[C@H]3[C@@H]4CC=C5C[C@@H](OCCC(CO[C@@H]6OC(CO)[C@@H](O[C@H]7OC(CO)[C@@H](O)C(O)C7O)C(O)C6O)CO[C@@H]6OC(CO)[C@@H](O[C@H]7OC(CO)[C@@H](O)C(O)C7O)C(O)C6O)CC[C@]5(C)[C@H]4CC[C@]3(C)[C@@H]1[C@@H]2C` (some centres unmarked) [GDN, glyco-diosgenin], in series [1], the “CMC” value was approximately 18 µM and the “CMC (wt %)” value is on record as approximately 0.0021 wt %. The “Rh (nm), hydrodynamic radius of micelles” value in series [2] worked out at 3.86 ± 0.05 nm. Moreover, the “LeuT activity preserved, % of initial activity” value in series [3] (after 12 days at RT) is recorded as more than 95%. Besides, in series [4], the “β2AR-T4L Tm comparison at higher concentrations” value is recorded as “superior to DDM”.
Turning to `CO[C@@H]1CC[C@@]2(C)[C@H](CC[C@@H]3[C@@H]2CC[C@]2(C)[C@@H]([C@H](C)CCCOCC(C)(CO[C@@H]4OC(CO)C(O[C@@H]5OC(CO)[C@@H](O)[C@H](O)C5O)[C@@H](O)C4O)CO[C@@H]4OC(CO)[C@@H](O[C@H]5OC(CO)[C@@H](O)[C@H](O)C5O)[C@H](O)C4O)CC[C@@H]32)C1` (some centres unmarked) [GLC-2], in series [1], the “CMC” value was approximately 8.0 µM and the “CMC (wt %)” value is reported as approximately 0.0009 wt %. Moreover, in series [2], the “Rh (nm), hydrodynamic radius of micelles” value was determined as 3.32 ± 0.04 nm. The “β2AR-T4L Tm comparison at higher concentrations” value in series [4] was “superior to DDM”.
